Measured values from patent US11555036B2, “FGFR4 inhibitor, preparation method therefor and pharmaceutical use thereof” (Abbisko Therapeutics Co., Ltd., priority 2016, dated 2023).

How the values were obtained:
FGFR4 = FGFR4 (Homo sapiens, UniProt P22455); assay: FGFR4 Caliper Assay (in vitro biochemical kinase analysis of FGFR4); settings: read-out: Enzymatic activity FGFR4 IC50
Procedure: I. In Vitro Biochemical Kinase Analysis of FGFR4
FGFR4 Caliper Assay was used in the present invention to determine the inhibitory activities of the compounds against FGFR4. The detailed experimental procedure was as follows.
2. A reaction system is a mixture solution of 50 mM HEPES, pH 7.5, 1 mM DTT, 0.02% Tween 20, 0.02% BSA, 0.6% DMSO, 10 mM beta glycerol phosphate and 10 μM sodium orthovanadate and 16 mM MgCl2.
3. The reaction system was incubated at 30° C. for 40 minutes.
4. The reaction was terminated by adding a stop solution (100 mM HEPES, pH 7.5, 5% DMSO, 0.1% Caliper coating reagent, 10 mM EDTA and 0.015% Brij35).
5. The culture plate with the terminated kinase reaction was transferred to the Caliper LC 3000 workstation to read the data, the phosphorylated and unphosphorylated peptides were separated by using the Caliper microfluid migration shift technique, and the analyte was transferred by allowing a constant buffer flow through the chip, the migration of the substrate peptide was monitored by the labeled fluorescent signal, and the kinase activity was calculated by using the amount of the phosphate-based peptide formed.
6. Finally, IC50 values were determined by non-linear regression analysis of percent inhibition at different compound concentrations.

[1] = system: Huh7 hepatocellular carcinoma cells; assay: FGFR4 cell proliferation experiment, Cell Titer Glo (CTG); assay type: cell-based; settings: Homo sapiens, Huh-7, 72 h, HuH-7 cells, 3 days; for IC50: concentration leading to absolute half growth inhibition; for EC50: concentration leading to half maximal growth inhibition
Procedure: II. FGFR4 Cell Proliferation Experiment
Cell Titer Glo (CTG) experiment was used in the present invention to evaluate the functional effects of the compounds on cell proliferation. […] Compound-mediated inhibition of cell proliferation/survival was assessed by quantification of cellular ATP levels using CTG reagent (Promega, #G7573). The specific experimental procedure was as follows:
2. 10 μL of medium containing a compound concentration of 10 fold of its final test concentration was added;
3. The dose effect was evaluated by a 5-fold serial dilution of the test compound, starting from 10 μM.
4. After cells incubation for 3 days at 37° C. under 5% CO2, the effect of the inhibitor on cell proliferation was quantified after adding 50 μL of CTG and testing with luminescence.

Chain of FGFR4 (P22455 22-802): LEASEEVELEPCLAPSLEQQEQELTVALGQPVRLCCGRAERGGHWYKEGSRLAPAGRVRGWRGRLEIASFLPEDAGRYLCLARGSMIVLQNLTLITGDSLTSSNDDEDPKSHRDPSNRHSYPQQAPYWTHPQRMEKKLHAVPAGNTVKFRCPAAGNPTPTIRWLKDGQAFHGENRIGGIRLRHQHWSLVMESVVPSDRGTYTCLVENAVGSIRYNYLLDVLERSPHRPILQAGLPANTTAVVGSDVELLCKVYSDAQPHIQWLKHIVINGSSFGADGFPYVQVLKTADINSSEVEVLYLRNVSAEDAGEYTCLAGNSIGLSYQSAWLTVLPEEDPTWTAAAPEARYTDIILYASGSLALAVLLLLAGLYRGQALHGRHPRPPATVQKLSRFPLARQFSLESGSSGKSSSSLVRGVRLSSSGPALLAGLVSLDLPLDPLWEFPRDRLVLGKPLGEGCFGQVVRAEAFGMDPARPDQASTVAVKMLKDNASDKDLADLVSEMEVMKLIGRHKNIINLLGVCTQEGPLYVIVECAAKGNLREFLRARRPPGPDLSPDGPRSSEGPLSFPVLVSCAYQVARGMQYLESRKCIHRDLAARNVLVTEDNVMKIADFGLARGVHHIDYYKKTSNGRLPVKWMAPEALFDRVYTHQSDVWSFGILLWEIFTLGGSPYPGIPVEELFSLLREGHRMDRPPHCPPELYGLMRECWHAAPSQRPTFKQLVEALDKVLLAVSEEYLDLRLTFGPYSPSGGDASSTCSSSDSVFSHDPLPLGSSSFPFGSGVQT

Row | IC50 (FGFR4) [nM] | IC50 [1] [nM] | EC50 [1] [nM] | Structure (SMILES)
1 | 166 | 457 | 78.1 | C=CC(=O)N[C@H]1CCOC[C@H]1Nc1ncc2cc(-c3c(Cl)c(OC)cc(OC)c3Cl)ncc2n1 [Example 119, N-((3S,4S)-3-((6-(2,6-dichloro-3,5-dimethoxyphenyl)pyrido[3,4-d]pyrimidin-2-yl)amino)tetrahydro-2H-pyran-4-yl)acrylamide]
2 | 303 | 754 | 156 | C=CC(=O)N[C@H]1COC[C@H]1Nc1ncc2cc(-c3c(F)c(OC)cc(OC)c3F)ncc2n1 [Example 120, N-((3R,4S)-4-((6-(2,6-difluoro-3,5-dime-thoxyphenyl)pyrido[3,4-d]pyrimidin-2-yl)amino)tetrahydrofuran-3-yl)acrylamide]
3 | 183 | 401 | 172 | C=CC(=O)N[C@H]1COC[C@H]1Nc1ncc2cc(-c3cc(OC)cc(OC)c3Cl)ncc2n1 [Example 121, N-((3R,4S)-4-((6-(2-chloro-3,5-dime-thoxyphenyl)pyrido[3,4-d]pyrimidin-2-yl)amino)tetrahydrofuran-3-yl)acrylamide]
4 | 61.6 | 556 | 303 | C=CC(=O)N[C@H]1COC[C@H]1Nc1cc2cnc(-c3c(Cl)c(OC)cc(OC)c3Cl)cc2cn1 [Example 124, N-((3R,4S)-4-((7-(2,6-dichloro-3,5-dime-thoxyphenyl)-2,6-naphthyridin-3-yl)amino)tetrahydrofuran-3-yl)acrylamide]
5 | 22 | 53.7 | 31.5 | C=CC(=O)N[C@H]1COC[C@H]1Nc1cc2c(NCC3CC3)nc(-c3c(Cl)c(OC)cc(OC)c3Cl)cc2cn1 [Example 126, N-((3R,4S)-4-((5-((cyclopropylmethyl)amino)-7-(2,6-dichloro-3,5-dimethoxy-phenyl)-2,6-naphthyridin-3-yl)amino)tetrahydrofuran-3-yl)acrylamide]
6 | 12.4 | 10 | 5.4 | C=CC(=O)N[C@H]1COC[C@H]1Nc1ncc2cc(-c3c(Cl)c(OC)cc(OC)c3Cl)nc(NCC3CC3)c2n1 [Example 421, N-((3R,4S)-4-((8-((cyclopropylmethyl)amino)-6-(2,6-dichloro-3,5-dimethoxyphenyl)pyrido[3,4-d]pyrimidin-2-yl)amino)tetrahydrofuran-3-yl)acrylamide]
7 | 22.5 | 238 | 47 | C=CC(=O)N[C@H]1COC[C@H]1Nc1ncc2cc(-c3c(Cl)c(OC)cc(OC)c3Cl)nc(NCCOC)c2n1 [Example 422, N-((3R,4S)-4-((6-(2,6-dichloro-3,5-di-methoxyphenyl)-8-((2-methoxyethyl)amino)pyrido[3,4-d]pyrimidin-2-yl)a-mino)tetrahydrofuran-3-yl)acrylamide]
8 | 31.7 | 348 | 98 | C=CC(=O)N[C@H]1COC[C@H]1Nc1ncc2cc(-c3c(Cl)c(OC)cc(OC)c3Cl)nc(OC)c2n1 [Example 423, N-((3R,4S)-4-((6-(2,6-dichloro-3,5-di-methoxyphenyl)-8-methoxypyrido[3,4-d]pyrimidin-2-yl)amino)tetrahydro-furan-3-yl)acrylamide]
9 | 11 | 37.2 | 18.5 | C=CC(=O)N[C@H]1COC[C@H]1Nc1ncc2cc(-c3c(F)c(OC)cc(OC)c3F)nc(NCC3CC3)c2n1 [Example 424, N-((3R,4S)-4-((8-((cyclopropylmeth-yl)amino)-6-(2,6-difluoro-3,5-dimeth-oxyphenyl)pyrido[3,4-d]pyrimidin-2-yl)amino)tetrahydrofuran-3-yl)acryl-amide]
10 | 22.4 | 184 | 63.2 | C=CC(=O)N[C@H]1COC[C@H]1Nc1ncc2cc(-c3c(Cl)c(OC)cc(OC)c3Cl)nc(NCCS(=O)(=O)CC)c2n1 [Example 429, N-((3R,4S)-4-((6-(2,6-dichloro-3,5-di-methoxyphenyl)-8-((2-(ethylsulfonyl)ethyl)amino)pyrido[3,4-d]pyrimidin-2-yl)amino)tetrahydrofuran-3-yl)acryl-amide]
11 | 19.1 | 93.5 | 32 | C=CC(=O)N[C@H]1COC[C@H]1Nc1ncc2cc(-c3c(Cl)c(OC)cc(OC)c3Cl)nc(NCCNS(C)(=O)=O)c2n1 [Example 430, N-((3R,4S)-4-((6-(2,6-dichloro-3,5-dimethoxyphenyl)-8-((2-(methyl-sulfonamido)ethyl)a-mino)pyrido[3,4-d]pyri-midin-2-yl)amino)tetrahydrofuran-3-yl)acrylamide]
12 | 106 | 934 | 396 | C=CC(=O)N[C@H]1COC[C@H]1Nc1ncc2cc(-c3c(Cl)c(OC)cc(OC)c3Cl)nc(NCCCN(C)C)c2n1 [Example 432, N-((3R,4S)-4-((6-(2,6-dichloro-3,5-di-methoxyphenyl)-8-((3-(dimethylami-no)propyl)amino)pyrido[3,4-d]pyrimi-din-2-yl)amino)tetrahydrofuran-3-yl) acrylamide]
13 | 7.6 | 26.1 | 19.3 | C=CC(=O)N[C@H]1COC[C@H]1Nc1ncc2cc(-c3c(Cl)c(OC)cc(OC)c3Cl)nc(NC)c2n1 [Example 433, N-((3R,4S)-4-((6-(2,6-dichloro-3,5-dimethoxyphenyl)-8-(methylamino)pyrido[3,4-d]pyrimidin-2-yl)amino)tetrahydrofuran-3-yl)acrylamide]
14 | 8.4 | 18.2 | 9.6 | C=CC(=O)N[C@H]1COC[C@H]1Nc1ncc2cc(-c3c(Cl)c(OC)cc(OC)c3Cl)nc(NCC)c2n1 [Example 434]
15 | 67 | 148 | 80 | C=CC(=O)N[C@H]1COC[C@H]1Nc1ncc2cc(-c3c(Cl)c(OC)cc(OC)c3Cl)nc(NCC(F)(F)F)c2n1 [Example 435, N-((3R,4S)-4-((6-(2,6-dichloro-3,5-di-methoxyphenyl)-8-((2,2,2-trifluoroeth-yl)amino)pyrido[3,4-d]pyrimidin-2-yl)amino)tetrahydrofuran-3-yl)acryl-amide]
16 | 3.5 | 17.8 | 9.9 | C=CC(=O)N[C@H]1COC[C@H]1Nc1ncc2cc(-c3c(Cl)c(OC)cc(OC)c3Cl)nc(NC[C@H]3CCCO3)c2n1 [Example 438A, N-((3R,4S)-4-((6-(2,6-dichloro-3,5-di-methoxyphenyl)-8-((((R)-tetrahydro-furan-2-yl)methyl)amino)pyrido[3,4-d]pyrimidin-2-yl)amino)tetrahydro-furan-3-yl)acrylamide]
17 | 9.1 | 35.1 | 15.8 | C=CC(=O)N[C@H]1COC[C@H]1Nc1ncc2cc(-c3c(Cl)c(OC)cc(OC)c3Cl)nc(NC[C@@H]3CCCO3)c2n1 [Example 438B, N-((3R,4S)-4-((6-(2,6-dichloro-3,5-di-methoxyphenyl)-8-((((S)-tetrahydro-furan-2-yl)methyl)amino)pyrido[3,4-d]pyrimidin-2-yl)amino)tetrahydro-furan-3-yl)acrylamide]
18 | 8.2 | 70.8 | 15.9 | C=CC(=O)N[C@H]1COC[C@H]1Nc1ncc2cc(-c3c(Cl)c(OC)cc(OC)c3Cl)nc(NC3CCOC3)c2n1 (stereo partly drawn) [Example 443, N-((3R,4S)-4-((6-(2,6-dichloro-3,5-di-methoxyphenyl)-8-((tetrahydrofuran-3-yl)amino)pyrido[3,4-d]pyrimidin-2-yl)amino)tetrahydrofuran-3-yl) acrylamide]
19 | 42.2 | 53.3 | 20.3 | C=CC(=O)N[C@H]1COC[C@H]1Nc1ncc2cc(-c3c(Cl)c(OC)cc(OC)c3Cl)nc(NC3CC(F)(F)C3)c2n1 [Example 452, N-((3R,4S)-4-((6-(2,6-dichloro-3,5-di-methoxyphenyl)-8-((3,3-difluorocyclo-butyl)amino)pyrido[3,4-d]pyrimidin-2-yl)amino)tetrahydrofuran-3-yl) acrylamide]
20 | 66.9 | 89.2 | 40.8 | C=CC(=O)N[C@H]1COC[C@H]1Nc1ncc2cc(-c3c(Cl)c(OC)cc(OC)c3Cl)nc(NCC3CCCC3)c2n1 [Example 454, N-((3R,4S)-4-((8-((cyclopentylmeth-yl)amino)-6-(2,6-dichloro-3,5-dimeth-oxyphenyl)pyrido[3,4-d]pyrimidin-2-yl)amino)tetrahydrofuran-3-yl)acryl-amide]
21 | 82.4 | 299 | 163 | C=CC(=O)N[C@H]1COC[C@H]1Nc1ncc2cc(-c3c(Cl)c(OC)cc(OC)c3Cl)nc(NCCc3ccccc3)c2n1 [Example 456, N-((3R,4S)-4-((6-(2,6-dichloro-3,5-di-methoxyphenyl)-8-(phenethylamino)pyrido[3,4-d]pyrimidin-2-yl)amino)tetrahydrofuran-3-yl)acrylamide]
